Patent publication US6953789B2, “Thiol compounds, their production and use” (Takeda Chemical Industries, Ltd., priority 1998, dated 2005)

These molecules were tested on nasal cartilage (assay: Assay of cartilage collagen degradation inhibiting activity (IL-1β-stimulated nasal cartilage pieces, hydroxyproline release)). Details: 504 h; at 1 μM of compound; human recombinant IL-1β; incubation 3 weeks.
Type: cell-based, cow
Experimental: A nasal cartilage was isolated aseptically from a sacrificed cow, and preincubated in a Dulbecco's modified eagle medium containing 5% heat-inactivated fetal bovine serum, 100 units/ml of penicillin G and 100 units/ml of streptomycin at 37° C. under 5% CO2 and 95% air for 3 days. After completing the preincubation, a cartilage piece weighing about 10 mg was prepared and placed in 100 μl of a medium supplemented with a human recombinant interleukin-1β (IL-1β: *ZENZYME*) and a test compound. After incubating for 3 weeks in total during which the culture medium was replaced on the weekly basis, the total amount of hydroxyproline liberated into the culture medium and the amount of hydroxyproline remaining in the cartilage piece were determined and % collagen degradation was calculated. The collagen degradation inhibiting activity of a test compound was determined according to the following equation. Collagen degradation inhibiting activity (%)=100×(Ci−Cs)/(Ci−Cc) Equation: wherein Cc is % collagen degradation in the absence of both of IL-1β and compound, Ci is % collagen degradation in the presence of IL-1β, and Cs is a % collagen degradation in the presence of both of IL-1β and a test compound.

Q: How did the inhibition at 1 µM turn out when `O=C1C[C@@H](S)[C@H](COCc2ccccc2)N1Cc1ccc(Oc2ccccc2)cc1` (relative stereo) [Example 39, Trans-5-benzyloxymethyl-4-mercapto-1-(4-phenoxybenzyl)pyrrolidin-2-one] was run?
A: Its inhibition at 1 µM is 39%.

Q: For `CC(=O)S[C@@H]1CC(=O)N(Cc2ccc(Oc3ccccc3)cc2)C1` [Example 24, (R)-4-Acetylthio-1-(4-phenoxybenzyl)pyrrolidin-2-one], which inhibition at 1 µM is on record?
A: The inhibition at 1 µM was 91%.

Q: How did the inhibition at 1 µM turn out when `O=C1C[C@@H](S)CN1Cc1ccc(Oc2ccccc2)cc1` [Example 25, (R)-4-Mercapto-1-(4-phenoxybenzyl)pyrrolidin-2-one] was run?
A: The inhibition at 1 µM was 88%.

Q: With `O=C1C[C@@H](S)CN1Cc1ccc(Oc2ccc(Cl)cc2)cc1` [Example 126, (R)-4-Mercapto-1-[4-(4-chlorophenoxy)benzyl]pyrrolidin-2-one] as the molecule, how does the inhibition at 1 µM read?
A: The inhibition at 1 µM was 70%.

Q: Which inhibition at 1 µM does the source give for `CC(=O)SC1CC(=O)N(Cc2ccc(Oc3ccccn3)cc2)C1` (stereo not shown) [Example 156, 4-Acetylthio-1-[4-(2′-pyridyloxy)benzyl]pyrrolidin-2-one] here?
A: Its inhibition at 1 µM is 84%.

What follows are molecules tested against T1, recombinant human MMP-13 (Homo sapiens, UniProt P45452) (assay: Assay of MMP-13 inhibiting activity (fluorogenic peptide substrate)). Details: Table 3; 37° C., 2 hours.
T1 construct: made in house; host or cells: baculovirus (pBlueBac4 / Bac-N-Blue; virus made in Sf9), expressed in High-Five insect cells; culture supernatant used
Type: biochemical
Method in brief: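 Baculovirus-expressed human MMP-13 (High-Five cell supernatant) in pH 7.5 Tris buffer with 200 mM NaCl, 20 mM CaCl2, 0.1% Brij 35, 1 mM 2-mercaptoethanol; reaction started with 40 μM (stock) MOCAc-PLGL-A2pr(DNP)-AR-NH2, 2 h at 37 °C, stopped at pH 3.0. Fluorescence 330/405 nm; IC50 versus no-compound control.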

Q: How did the IC50 turn out when `CC(=O)S[C@@H]1CC(=O)N(Cc2ccc(Oc3ccccc3)cc2)C1` [Example 24, (R)-4-Acetylthio-1-(4-phenoxybenzyl)pyrrolidin-2-one] was run?
A: Its IC50 is 9 nM.

Q: With `O=C1C[C@@H](S)CN1Cc1ccc(Oc2ccccc2)cc1` [Example 25, (R)-4-Mercapto-1-(4-phenoxybenzyl)pyrrolidin-2-one] as the molecule, how does the IC50 read?
A: Its IC50 is 3 nM.

Q: With “Ethyl 3-{[(3R)-5-oxo-1-(4-phenoxybenzyl)-2-pyrrolidinyl]disulfanyl}propanoate [Example 84]” as the molecule, how does the IC50 read?
A: Its IC50 is 32 nM.

Same assay, conditions: Table 5; 37° C., 2 hours

Q: Which IC50 does the source give for `O=C1C[C@@H](S)[C@H](COCc2ccccc2)N1Cc1ccc(Oc2ccccc2)cc1` (relative stereo) [Example 39, Trans-5-benzyloxymethyl-4-mercapto-1-(4-phenoxybenzyl)pyrrolidin-2-one] here?
A: The IC50 was 9 nM.

Q: How did the IC50 turn out when `CC(=O)S[C@H]1CC(=O)N(Cc2ccc(Oc3ccccc3)cc2)[C@H]1C` [Example 175, (4S,5S)-4-Acetylthio-5-methyl-1-(4-phenoxybenzyl)pyrrolidin-2-one] was run?
A: Its IC50 is 100 nM.

Q: How did the IC50 turn out when `C[C@H]1[C@@H](S)CC(=O)N1Cc1ccc(Oc2ccccc2)cc1` [Example 176, (4S,5S)-4-Mercapto-5-methyl-1-(4-phenoxybenzyl)pyrrolidin-2-one] was run?
A: The IC50 was 50 nM.

Q: How did the IC50 turn out when `CC(=O)S[C@@H]1CC(=O)N(Cc2ccc(Oc3ccccc3)cc2)[C@H]1C` [Example 177, (4R,5S)-4-Acetylthio-5-methyl-1-(4-phenoxybenzyl)pyrrolidin-2-one] was run?
A: The IC50 was 2 nM.

Q: How did the IC50 turn out when `C[C@H]1[C@H](S)CC(=O)N1Cc1ccc(Oc2ccccc2)cc1` [Example 178, (4R,5S)-4-Mercapto-5-methyl-1-(4-phenoxybenzyl)pyrrolidin-2-one] was run?
A: The IC50 was 5 nM.

Q: Which IC50 does the source give for `CC(=O)SC1CC(=O)N(Cc2ccc(Oc3ccccc3)cc2)C1C(N)=O` (stereo not drawn) [Example 187, trans-5-Aminocarbonyl-4-acetylthio-1-(4-phenoxybenzyl)pyrrolidin-2-one] here?
A: The IC50 was 360 nM.

Q: For `NC(=O)C1C(S)CC(=O)N1Cc1ccc(Oc2ccccc2)cc1` (stereo not drawn) [Example 188, trans-5-Aminocarbonyl-4-mercapto-1-(4-phenoxybenzyl)pyrrolidin-2-one], which IC50 is on record?
A: Its IC50 is 13 nM.

Same assay, conditions: Table 6; 37° C., 2 hours

Q: For `CC(=O)SC1CN(Cc2ccc(Oc3ccccc3)cc2)C(=O)C1C` (stereo not drawn) [Example 194, trans-4-Acetylthio-3-methyl-1-(4-phenoxybenzyl)pyrrolidin-2-one], which IC50 is on record?
A: The IC50 was 30 nM.

Q: How did the IC50 turn out when `CC1C(=O)N(Cc2ccc(Oc3ccccc3)cc2)CC1S` (stereo not drawn) [Example 195, trans-4-Mercapto-3-methyl-1-(4-phenoxybenzyl)pyrrolidin-2-one] was run?
A: Its IC50 is 6 nM.

Same assay, conditions: Table 9; 37° C., 2 hours

Q: For `O=C1C[C@@H](S)CN1Cc1ccc(Oc2ccc(Cl)cc2)cc1` [Example 126, (R)-4-Mercapto-1-[4-(4-chlorophenoxy)benzyl]pyrrolidin-2-one], which IC50 is on record?
A: Its IC50 is 1.7 nM.

Q: `CC(=O)S[C@@H]1CC(=O)N(Cc2ccc(Oc3ccc(Br)cc3)cc2)C1` [Example 199, (R)-4-Acetylthio-1-[4-(4′-bromophenoxy)benzyl]pyrrolidin-2-one] was tested. Which IC50 did it give?
A: Its IC50 is 6 nM.

Q: For `O=C1C[C@@H](S)CN1Cc1ccc(Oc2ccc(Br)cc2)cc1` [Example 200, (R)-4-Mercapto-1-[4-(4′-bromophenoxy)benzyl]pyrrolidin-2-one], which IC50 is on record?
A: Its IC50 is 2 nM.

Q: For “(R)-4-Acethylthio-1-[4-(4-chlorophenoxy)benzyl]pyrrolidin-2-one [Example 125]”, which IC50 is on record?
A: The IC50 was 6.1 nM.

Same assay, conditions: Table 10; 37° C., 2 hours

Q: How did the IC50 turn out when `O=C1CC(S)CN1Cc1ccc(Sc2ccccc2)cc1` (stereo not shown) [Example 155, 4-Mercapto-1-(4-phenylthiobenzyl)pyrrolidin-2-one] was run?
A: Its IC50 is 7 nM.

Q: For `CC(=O)SC1CC(=O)N(Cc2ccc(Cc3ccccc3)cc2)C1` (stereo not shown) [Example 159, 4-Acetylthio-1-(4-benzylbenzyl)pyrrolidin-2-one], which IC50 is on record?
A: Its IC50 is 500 nM.

Q: `O=C1CC(S)CN1Cc1ccc(Cc2ccccc2)cc1` (stereo not shown) [Example 160, 4-Mercapto-1-(4-benzylbenzyl)pyrrolidin-2-one] was tested. Which IC50 did it give?
A: Its IC50 is 90 nM.

Q: With `CC(=O)SC1CC(=O)N(Cc2ccc(C(=O)c3ccccc3)cc2)C1` (stereo not shown) [Example 161, 4-Acetylthio-1-(4-benzoylbenzyl)pyrrolidin-2-one] as the molecule, how does the IC50 read?
A: Its IC50 is 200 nM.

Q: `O=C(c1ccccc1)c1ccc(CN2CC(S)CC2=O)cc1` (stereo not shown) [Example 162, 4-Mercapto-1-(4-benzoylbenzyl)pyrrolidin-2-one] was tested. Which IC50 did it give?
A: The IC50 was 20 nM.

Q: How did the IC50 turn out when `CC(=O)SC1CC(=O)N(Cc2ccc(COc3ccccc3)cc2)C1` (stereo not shown) [Example 163, 4-Acetylthio-1-(4-phenoxymethylbenzyl)pyrrolidin-2-one] was run?
A: The IC50 was 500 nM.

Q: For `O=C1CC(S)CN1Cc1ccc(COc2ccccc2)cc1` (stereo not shown) [Example 164, 4-Mercapto-1-(4-phenoxymethylbenzyl)pyrrolidin-2-one], which IC50 is on record?
A: The IC50 was 80 nM.

Q: With `CC(=O)SC1CC(=O)N(Cc2ccc(OCc3ccccc3)cc2)C1` (stereo not shown) [Example 165, 4-Acetylthio-1-(4-benzyloxybenzyl)pyrrolidin-2-one] as the molecule, how does the IC50 read?
A: The IC50 was 1000 nM.

Q: Which IC50 does the source give for `O=C1CC(S)CN1Cc1ccc(OCc2ccccc2)cc1` (stereo not shown) [Example 166, 4-Mercapto-1-(4-benzyloxybenzyl)pyrrolidin-2-one] here?
A: Its IC50 is 100 nM.

Q: How did the IC50 turn out when `CC(=O)SC1CC(=O)N(Cc2ccc(CCc3ccccc3)cc2)C1` (stereo not shown) [Example 167, 4-Acetylthio-1-(4-phenethylbenzyl)pyrrolidin-2-one] was run?
A: Its IC50 is 400 nM.

Q: `O=C1CC(S)CN1Cc1ccc(CCc2ccccc2)cc1` (stereo not shown) [Example 168, 4-Mercapto-1-(4-phenethylbenzyl)pyrrolidin-2-one] was tested. Which IC50 did it give?
A: Its IC50 is 70 nM.

Q: For `CC(=O)SC1CC(=O)N(CCc2ccc(Oc3ccccc3)cc2)C1` (stereo not drawn) [Example 169, S-[5-Oxo-1-(4-phenoxyphenethyl)-3-pyrrolidinyl]ethanethioate], which IC50 is on record?
A: Its IC50 is 7000 nM.

Q: Which IC50 does the source give for `O=C1CC(S)CN1CCc1ccc(Oc2ccccc2)cc1` (stereo not shown) [Example 170, 1-(4-Phenoxyphenethyl)-4-sulfanyl-2-pyrrolidinone] here?
A: Its IC50 is 500 nM.

Q: With `CC(=O)SC1CC(=O)N(Cc2ccc([S+]([O-])c3ccccc3)cc2)C1` (stereo not shown) [Example 171, 4-Acetylthio-1-(4-phenylsulfinylbenzyl)pyrrolidin-2-one] as the molecule, how does the IC50 read?
A: The IC50 was greater than 10000 nM.

Q: `O=C1CC(S)CN1Cc1ccc([S+]([O-])c2ccccc2)cc1` (stereo not shown) [Example 172, 4-Mercapto-1-(4-phenylsulfinylbenzyl)pyrrolidin-2-one] was tested. Which IC50 did it give?
A: The IC50 was greater than 10000 nM.

Q: `CC(=O)SC1CC(=O)N(Cc2ccc(S(=O)(=O)c3ccccc3)cc2)C1` (stereo not shown) [Example 173, 4-Acetylthio-1-(4-phenylsulfonylbenzyl)pyrrolidin-2-one] was tested. Which IC50 did it give?
A: The IC50 was greater than 10000 nM.

Q: With `O=C1CC(S)CN1Cc1ccc(S(=O)(=O)c2ccccc2)cc1` (stereo not shown) [Example 174, 4-Mercapto-1-(4-phenylsulfonylbenzyl)pyrrolidin-2-one] as the molecule, how does the IC50 read?
A: The IC50 was 510 nM.

Q: `CC(=O)SC1CC(=O)N(C(=O)c2ccc(Oc3ccccc3)cc2)C1` (stereo not drawn) [Example 196, S-[5-Oxo-1-(4-phenoxybenzoyl)-3-pyrrolidinyl]ethanethioate] was tested. Which IC50 did it give?
A: The IC50 was greater than 10000 nM.

Same assay, conditions: Table 11; 37° C., 2 hours

Q: With `CC(=O)SC1CC(=O)N(Cc2ccc(Oc3ccccn3)cc2)C1` (stereo not shown) [Example 156, 4-Acetylthio-1-[4-(2′-pyridyloxy)benzyl]pyrrolidin-2-one] as the molecule, how does the IC50 read?
A: Its IC50 is 700 nM.

Q: With `CC(=O)SC1CC(=O)N(Cc2ccc(Oc3ccsc3)cc2)C1` (stereo not shown) [Example 157, 4-Acetylthio-1-[4-(3′-thienyloxy)benzyl]pyrrolidin-2-one] as the molecule, how does the IC50 read?
A: The IC50 was 6 nM.

Q: How did the IC50 turn out when `O=C1CC(S)CN1Cc1ccc(Oc2ccsc2)cc1` (stereo not shown) [Example 158, 4-Mercapto-1-[4-(3′-thienyloxy)benzyl]pyrrolidin-2-one] was run?
A: Its IC50 is 4 nM.

Q: Which IC50 does the source give for `CC(=O)SC1CC(=O)N(CC2CCN(C(=O)c3ccccc3)CC2)C1` (stereo not shown) [Example 193, 4-Acetylthio-1-[(1-benzoyl-4-piperidyl)methyl]pyrrolidin-2-one] here?
A: Its IC50 is greater than 10000 nM.

Q: Which IC50 does the source give for `CC(=O)S[C@@H]1CC(=O)N(Cc2ccc(Oc3ccc4c(c3)OCO4)cc2)C1` [Example 198, S-{(3R)-1-{4-(1,3-benzodioxol-5-yloxy)benzyl]-5-oxopyrrolidinyl}ethanethioate] here?
A: Its IC50 is 12 nM.

Q: With `CC(=O)SC1CC(=O)N(Cc2ccc3oc4ccccc4c3c2)C1` (stereo not shown) [Example 201, 4-Acetylthio-1-(2-dibenzofuranmethyl)pyrrolidin-2-one] as the molecule, how does the IC50 read?
A: The IC50 was 300 nM.

Q: How did the IC50 turn out when `O=C1CC(S)CN1Cc1ccc2oc3ccccc3c2c1` (stereo not shown) [Example 202, 4-Mercapto-1-(2-dibenzofuranmethyl)pyrrolidin-2-one] was run?
A: Its IC50 is 100 nM.

Q: `CC(=O)SC1CC(=O)N(Cc2ccc(N(c3ccccc3)S(=O)(=O)c3ccc(C)cc3)cc2)C1` (stereo not shown) [Example 203, 4-Acetylthio-1-[4-(N-phenyl-N-p-toluenesulfonyl)aminobenzyl]pyrrolidin-2-one] was tested. Which IC50 did it give?
A: Its IC50 is greater than 10000 nM.

Q: Which IC50 does the source give for `Cc1ccc(S(=O)(=O)N(c2ccccc2)c2ccc(CN3CC(S)CC3=O)cc2)cc1` (stereo not shown) [Example 204, 4-Mercapto-1-[4-(N-phenyl-N-p-toluenesulfonylamino)benzyl]pyrrolidin-2-one] here?
A: Its IC50 is 3900 nM.

Same assay, conditions: Table 12; 37° C., 2 hours

Q: With “S-[2-Oxo-1-(4-phenoxybenzyl)-4-piperidinyl]ethanethioate [Example 110]” as the molecule, how does the IC50 read?
A: Its IC50 is 250 nM.
